The record followed here is PubChem BioAssay AID2060330 (Molecular Pharmacology Branch, DTP, NCI, 2025).

The viability, T/C is the ratio of treated to control. In general, IC50 refers to the concentration needed to halve the response being measured.

Several values for one entry are separate records, joined by “and”; a condition that tells them apart may be missing. Equal values may be shown once. A value given as a limit tells only on which side of the number the result lay.

In this assay the test system is LG0703-F948-PDC spheroids with HUVEC/MSC, viability. In words: Anticancer human tumor LG0703-F948-PDC patient-derived lung adenocarcinoma cell line growth inhibition [IpAb]. The note with it: for viability, T/C: stronger effect = lower value. The source says:
Combinatorial screen of targeted agents with ipatasertib and abemaciclib in multi-cell type tumor spheroids
A high-throughput screen of multi-cell type tumor spheroids was designed to identify active combinations of targeted small molecules and ipatasertib or abemaciclib. Complex spheroids include a stromal component modeled by human endothelial cells (HUVEC) and fibroblasts modeled by human mesenchymal stem cells (MSCs). The concentration ranges selected for each drug and investigational agent were based upon clinically achievable concentrations if the clinical Cmax of the agent was known.
Compounds. The drugs and investigational agents: ipatasertib (NSC767898), abemaciclib(NSC768073), selumetinib (NSC741078), trametinib (758246), adavosertib (NSC754352), everolimus (NSC733504), sapanisertib (NSC764658), vemurafenib (NSC761431), venetoclax (NSC766270), copanlisib (NSC809693), apelisib (NSC765974), palbociblib (NSC758247), vemurafenib (NSC761431), dabrafenib (NSC764134), ravoxertinib (NSC781343), BMS-387032 (NSC767048), sotorasib (NSC818433), talazoparib (NSC767125) and afursertib (NSC778305), were obtained from the National Cancer Institute (NCI) Developmental Therapeutics Program Chemical Repository. The FDA-approved anticancer drug set is available from the NCI Developmental Therapeutics Program. […] The stock solutions were prepared in dimethyl sulfoxide (DMSO, Sigma-Aldrich, St. Louis, MO, cat. D2650) at 800-fold the tested concentration and stored at -70 degrees C prior to their use. All drugs and investigational agents were tested over a range starting from a high concentration at or near the clinical Cmax and decreasing in half-log increments. If the clinical Cmax for an agent had not been determined, the highest concentration tested was 10 microM.
NCI60 Cell Culture. NCI60 cell lines were obtained from the NCI Developmental Therapeutics Program Tumor Repository. For each lot of cells, the Repository performed Applied Biosystems AmpFLSTR Identifiler testing with PCR amplification to confirm consistency with the published Identifier STR profile for each cell line. Cells were kept in continuous culture for no more than 20 passages. The optimal seeding densities for each of the cell lines at each time point assessed were determined prior to performing the concentration response studies. Briefly, the NCI60 human tumor lines were grown as monolayers in RPMI 1640 medium supplemented with 10% FBS and 2 mmol/L L-glutamine.
An additional 9 lines were from the NCI60 cell line panel including MDA-MB-231 breast carcinoma, MDA-MB-468 breast carcinoma, MCF7 breast carcinoma, Hs578T breast carcinoma, MALME-3M melanoma, SK-MEL-2 melanoma, SK-OV-3 ovarian carcinoma, DU-145 prostate carcinoma, PC-3 prostate carcinoma, all cell lines along with major genetic alterations are listed on Table 2. Pooled donor human umbilical vein endothelial cells (HUVEC, Lonza, cat. CC-2519) and human mesenchymal stem cells (hMSC, Lonza, cat. PT-2501) were purchased from Lonza (Walkersville, MD).
PDMR cell lines were grown in complete medium (DC medium): Dulbecco's modified Eagle's medium (DMEM)/F12 supplemented with 5% fetal bovine serum (FBS), 2 mM L-glutamine, 100 U/mL penicillin and 100 µg/ml streptomycin, 0.4 µg/ml hydrocortisone, 10 ng/ml epidermal growth factor (EGF) recombinant human protein, 24 µg/mL adenine, and 0.1 mg/mL primocin. During culture from frozen stock vials, PDMR cells were cultured in the same medium containing 10 µM Y-27632 (see Table 3). The PDCs were cultured in complete DMEM/F12 media without 10 microM Y-27632 dihydrochloride for at least two passages prior to the screen. The pooled donor HUVEC and hMSC were cultured in endothelial cell growth medium 2 (PromoCell, Heidelberg, Germany, cat. C-22011) and mesenchymal stem cell growth medium 2 (PromoCell, cat. C-28009), respectively. For all experiments, HUVEC and hMSC were used at passages </=5.
[…]
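Note: spheroids exposed to compounds for seven days before readout.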
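Throughout, for viability, T/C: T/C percent relative to DMSO vehicle wells set as 100% viability.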

As for `C=CC(=O)N1CCN(c2nc(=O)n(-c3c(C)ccnc3C(C)C)c3nc(-c4c(O)cccc4F)c(F)cc23)C(C)C1` (centres undefined), the viability, T/C runs as follows: (compound 0.0316 µM) 110% and 106%; (compound 0.1 µM) 108% and 103%; (compound 0.316 µM) 119%; (compound 1 µM) 113% and 129%; (compound 3.16 µM) 108% and 119%; (compound 10 µM) 65.2% and 83%. Besides, the IC50 (curve of compound) is above 10000 nM.

On to `C=CCn1c(=O)c2cnc(Nc3ccc(N4CCN(C)CC4)cc3)nc2n1-c1cccc(C(C)(C)O)n1`, for which the viability, T/C was 108% and 109% (compound 0.0316 µM); 107% and 101% (compound 0.1 µM); 96.2% and 81.3% (compound 0.316 µM); 58% and 55.1% (compound 1 µM); 19.6% and 15.7% (compound 3.16 µM); 6.89% and 4.96% (compound 10 µM). The IC50 (curve of compound) was 1280 nM and 1040 nM.

Take `CC(=O)c1c(C)c2cnc(Nc3ccc(N4CCNCC4)cn3)nc2n(C2CCCC2)c1=O`: the viability, T/C by setting is: (compound 0.000949 µM) 115% and 112%; (compound 0.003 µM) 112% and 98.4%; (compound 0.00949 µM) 103% and 102%; (compound 0.03 µM) 101% and 87.4%; (compound 0.0949 µM) 103% and 73.3%; (compound 0.3 µM) 84% and 77.2%. Besides, where the note is “curve of compound”, the IC50 is above 300 nM.

As to `CC(C)(C)c1cnc(CSc2cnc(NC(=O)C3CCNCC3)s2)o1`, the viability, T/C runs as follows: (compound 0.00949 µM) 105% and 90.3%; (compound 0.03 µM) 84% and 77.8%; (compound 0.0949 µM) 58.7% and 44.8%; (compound 0.3 µM) 0.71% and 0.81%; (compound 0.949 µM) 0.43% and 0.49%; (compound 3 µM) 0.25% and 0.28%. The IC50 (curve of compound) was 108 nM and 76.9 nM.

As to `CC(C)NCC(C(=O)N1CCN(c2ncnc3c2C(C)CC3O)CC1)c1ccc(Cl)cc1` (centres undefined), the viability, T/C is 81% [middle of 13 runs] (compound 0.1 µM), 64.2% [middle of 13 runs] (compound 0.316 µM), 44.4% [middle of 13 runs] (compound 3.16 µM) and 40.4% [middle of 13 runs] (compound 10 µM).

Take `CC(C)n1nc(-c2ccc3oc(N)nc3c2)c2c(N)ncnc21`: the viability, T/C is, setting by setting: (compound 0.000316 µM) 87.8% and 89.9%; (compound 0.001 µM) 66.2% and 83.2%; (compound 0.00316 µM) 52% and 57.7%; (compound 0.01 µM) 32.2% and 35.2%; (compound 0.0316 µM) 19.4% and 23.2%; (compound 0.1 µM) 19.6% and 22.4%. In addition, where the note is “curve of compound”, the IC50 is 2.95 nM and 4.75 nM.

`CC1(C)CCC(CN2CCN(c3ccc(C(=O)NS(=O)(=O)c4ccc(NCC5CCOCC5)c([N+](=O)[O-])c4)c(Oc4cnc5[nH]ccc5c4)c3)CC2)=C(c2ccc(Cl)cc2)C1`: the viability, T/C by setting is: (compound 0.0316 µM) 107% and 100%; (compound 0.1 µM) 106% and 101%; (compound 0.316 µM) 105% and 90.3%; (compound 1 µM) 101% and 95.1%; (compound 3.16 µM) 69.9% and 84.5%; (compound 10 µM) 14.1% and 13.4%. Further, the IC50 (curve of compound) was 4740 nM and 5530 nM.

In the case of `CCCS(=O)(=O)Nc1ccc(F)c(C(=O)c2c[nH]c3ncc(-c4ccc(Cl)cc4)cc23)c1F`, the viability, T/C is, setting by setting: (compound 0.0316 µM) 98.2% and 112%; (compound 0.1 µM) 99.7% and 110%; (compound 0.316 µM) 91.5% and 92.6%; (compound 1 µM) 105% and 111%; (compound 3.16 µM) 98.9% and 101%; (compound 10 µM) 76.2% and 71.7%. Also, where the note is “curve of compound”, the IC50 was above 10000 nM.

With `CCN1CCN(Cc2ccc(Nc3ncc(F)c(-c4cc(F)c5nc(C)n(C(C)C)c5c4)n3)nc2)CC1`, the viability, T/C is, setting by setting: (compound 0.0316 µM) 97% [middle of 13 runs]; (compound 0.1 µM) 91% [middle of 12 runs]; (compound 0.316 µM) 83.5% [middle of 13 runs]. For the same compound, for the setting “compound alone, run of 06/01/2021”, the IC50 is above 1000 nM.

Turning to `COc1c(OCCCN2CCOCC2)ccc2c3n(c(=NC(=O)c4cnc(N)nc4)nc12)CCN3`, the viability, T/C (compound 0.00316 µM) was 96.2% and 95.4%; the viability, T/C (compound 0.01 µM) is 78.3% and 87.8%; the viability, T/C (compound 0.0316 µM) was 56.1% and 63.4%; the viability, T/C (compound 0.1 µM) was 20.8% and 24%; the viability, T/C (compound 0.316 µM) was 6.09% and 7.35%; the viability, T/C (compound 1 µM) is 3.7% and 4.95%. In addition, the IC50 (curve of compound) was 35.6 nM and 46.5 nM.

As to `Cc1nc(NC(=O)N2CCCC2C(N)=O)sc1-c1ccnc(C(C)(C)C(F)(F)F)c1` (centres undefined), the viability, T/C (compound 0.0316 µM) was 93.3% and 92%; the viability, T/C (compound 0.1 µM) is 85.5% and 87.4%; the viability, T/C (compound 0.316 µM) is 77.1% and 72.5%; the viability, T/C (compound 1 µM) is 53.9% and 63.8%; the viability, T/C (compound 3.16 µM) is 28% and 30.2%; the viability, T/C (compound 10 µM) was 3.02% and 2.66%. Further, the IC50 (curve of compound) is 1230 nM and 1480 nM.

With `Cn1cnc2c(F)c(Nc3ccc(Br)cc3Cl)c(C(=O)NOCCO)cc21`, the viability, T/C by setting is: (compound 0.00949 µM) 85.5% and 87.7%; (compound 0.03 µM) 64.7% and 68.2%; (compound 0.0949 µM) 53.1% and 54.3%; (compound 0.3 µM) 50.3% and 50.7%; (compound 0.949 µM) 37.5% and 43.6%; (compound 3 µM) 35.4% and 42.1%. Besides, the IC50 (curve of compound) was 166 nM and 234 nM.

Regarding `Cn1ncc(Cl)c1-c1cc(C(=O)NC(CN)Cc2cccc(F)c2)sc1Cl` (centres undefined), the viability, T/C is, setting by setting: (compound 0.0316 µM) 85.7% and 79%; (compound 0.1 µM) 71.9% and 81.5%; (compound 0.316 µM) 60.7% and 58.4%; (compound 1 µM) 48% and 62.5%; (compound 3.16 µM) 17.1% and 21.7%; (compound 10 µM) 0.19%. In addition, the IC50 (curve of compound) was 650 nM and 1170 nM.

As to `Cn1nccc1Nc1nccc(-c2ccn(C(CO)c3ccc(Cl)c(F)c3)c(=O)c2)n1` (centres undefined), the viability, T/C runs as follows: (compound 0.0316 µM) 93.2% and 90.2%; (compound 0.1 µM) 90.3% and 80.3%; (compound 0.316 µM) 71.5% and 79%; (compound 1 µM) 77.8% and 60.3%; (compound 3.16 µM) 85.2% and 81%; (compound 10 µM) 52.8% and 67.5%. In addition, the IC50 (curve of compound) was above 10000 nM.

In the case of `Cn1ncnc1[C@H]1c2n[nH]c(=O)c3cc(F)cc(c23)N[C@@H]1c1ccc(F)cc1`, the viability, T/C is 108% and 102% (compound 0.000316 µM); 100% and 95.7% (compound 0.001 µM); 96.7% and 99% (compound 0.00316 µM); 102% and 101% (compound 0.01 µM); 87.6% and 92.6% (compound 0.0316 µM); 83.5% and 84.1% (compound 0.1 µM). Besides, the IC50 (curve of compound) is above 100 nM.
